Assay results: publication PMC11858653, “Design, Synthesis and Bioactive Evaluation of Topo I/c-MYC Dual Inhibitors to Inhibit Oral Cancer via Regulating the PI3K/AKT/NF-κB Signaling Pathway” (Molecules, 2025)

What was measured:
Cal27 cells [1] = assay: Wound healing assay; type: cell-based, human; conditions: 1-4 μM, 24 h
Procedure: Cal27 cells in the logarithmic growth phase were inoculated into 6-well plates and cultured until the cells fused into a monolayer. A linear wound was then formed by scratching vertically with a 200 μL sterilized gun tip. The cells were washed 3 times with PBS to remove scraped off cells, and each well was incubated by adding medium. The initial scratched area was recorded with a microscope. Then different concentrations of the compounds to be tested were added, and the area of the scratches was recorded by microscopy 24 h later.

PI3K/AKT/NF-κB pathway = assay: Western blot of PI3K/AKT/NF-κB signaling pathway in Cal27 cells; type: cell-based, human; conditions: Cal27, 24 h
Procedure: After Cal27 cells had been treated with the desired concentration of each drug for 24 h, the cells were collected and the total protein was extracted. The cells were then separated on a gel of appropriate concentration and transferred to a PVDF membrane. After blocking with milk, the membrane was incubated with primary antibody at 4 °C overnight. Subsequently, the membrane was incubated with horseradish peroxidase-coupled secondary antibody for 2 h. Finally, the protein bands were used to detect the immunoreactive signal using an enhanced chemiluminescence kit.

c-MYC = assay: RT-qPCR of c-MYC transcription in Cal27 cells; type: cell-based, human; conditions: Cal27, 24 h
Procedure: Cal27 cells were plated in a 6-well plate and incubated for 12 h at 37 °C in a humidified atmosphere with 5% CO2, then compound 7be was added at final concentrations of 1 μM, 2 μM, 3 μM and 4 μM. After incubation for 24 h, cells were harvested, and the RNA was extracted according to the manufacturer’s instructions. Total RNA was used as a template for reverse transcription. The cDNA was obtained and applied directly for further qPCR. According to the manufacturer’s protocol, the real-time PCR was performed on a real-time PCR apparatus. The total volume of 20 μL of quantitative reaction mixtures contained 10 μL of SYBR Green qPCR Mix, 0.4 μL PCR Forward Primer (10 μM), 0.4 μL PCR Reverse Primer (10 μM) and 2 μL of cDNA (Table S4). The c-MYC mRNA levels were normalized to the GAPDH mRNA level of each sample. Results of real-time PCR were analyzed using the 2^−ΔCt method.

Topo I = molecular target: T1, Topo I (Homo sapiens, UniProt P11387); assay: Topo I inhibitory activity, agarose gel electrophoresis (pBR322); type: biochemical
T1 sequence (P11387 1-765): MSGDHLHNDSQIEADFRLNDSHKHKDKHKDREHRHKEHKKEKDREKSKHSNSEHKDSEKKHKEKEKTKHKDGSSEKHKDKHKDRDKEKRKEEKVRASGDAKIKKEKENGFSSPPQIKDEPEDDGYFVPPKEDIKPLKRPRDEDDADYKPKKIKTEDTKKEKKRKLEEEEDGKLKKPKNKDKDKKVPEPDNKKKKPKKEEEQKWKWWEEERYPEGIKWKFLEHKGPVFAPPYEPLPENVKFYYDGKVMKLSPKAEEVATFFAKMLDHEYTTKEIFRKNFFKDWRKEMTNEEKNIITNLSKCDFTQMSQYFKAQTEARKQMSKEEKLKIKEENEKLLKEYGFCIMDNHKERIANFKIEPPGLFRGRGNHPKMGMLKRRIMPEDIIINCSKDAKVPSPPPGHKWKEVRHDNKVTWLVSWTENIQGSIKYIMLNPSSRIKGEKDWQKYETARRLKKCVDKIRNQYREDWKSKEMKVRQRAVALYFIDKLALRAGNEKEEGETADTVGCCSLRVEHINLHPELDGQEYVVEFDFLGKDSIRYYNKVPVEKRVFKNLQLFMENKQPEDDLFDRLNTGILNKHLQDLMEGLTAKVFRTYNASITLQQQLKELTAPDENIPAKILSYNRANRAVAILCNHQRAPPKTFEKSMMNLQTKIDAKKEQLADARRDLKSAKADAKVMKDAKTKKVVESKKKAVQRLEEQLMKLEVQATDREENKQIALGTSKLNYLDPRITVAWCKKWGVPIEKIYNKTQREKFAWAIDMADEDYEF
Procedure: In this assay, 250 ng of pBR322 plasmid DNA, different concentrations of the compounds to be tested, 0.1% BSA 1 μL, 10× Topo I buffer, Topo I and add 1× TAE buffer were mixed to a final volume of 20 μL. The reaction was carried out for 30 min at 37 °C in a water bath. After the reaction was terminated, 4 μL of each of the 6× DNA Sampling Buffers were added to the gel. The pBR322 plasmid DNA alone was used as a negative control, and camptothecin was used as a positive control. Finally, the samples were loaded onto the gels and electrophoresed for about 1.5 h. After electrophoresis, the gel blocks were incubated in 1 mg/L ethidium bromide (EB) for 30 min and then visualized on the gel system.

Cal27 cells [2] = assay: Colony formation assay; type: cell-based, human; conditions: Cal27, tested 0.5, 1, 1.5 μM
Procedure: The colony formation assay was used to evaluate the antiproliferative effect of compound 7be on Cal27 cells. Cal27 cells were grown in 6-well plates at a density of 700 cells per well and then treated with different concentrations of compound 7be for 48 h. The treatment medium was removed and fresh medium was added. After 2 weeks of culture, cells were fixed with 4% paraformaldehyde for 8 min and stained with crystal violet solution (10%). Finally, they were imaged with a camera.

For `Cc1cc(C)c2c(n1)S(=O)(=O)c1c-2nc(NCCN2CCCCC2)c2ccccc12` [7be, 7,9-Dimethyl-5-((2-(piperidin-1-yl)ethyl)amino) pyrido[3′,2′:4,5]thieno[3,2-c]isoquinoline 11,11-dioxide], the “migration of Cal27 cells (in words)” value (Cal27 cells [1]) was “effectively inhibit migration”, the “expression and phosphorylation levels of NF-κB” value (PI3K/AKT/NF-κB pathway) was “decrease” and the “expression levels of PI3K” value (PI3K/AKT/NF-κB pathway) was “slightly increased”. The “phosphorylation levels of PI3K and AKT” value (PI3K/AKT/NF-κB pathway) was “significantly repressed”, the “concentration needed to significantly inhibit the transcription of c-MYC” value (c-MYC) was 8 µM and the “Topo I inhibitory activity (in words)” value (Topo I; 20 μM) was “potent Topo I activity”. The “concentration at which the activity of Topo I was fully inhibited” value (Topo I; different concentrations) was 20 µM and the “concentration completely suppressing colony formation ability” value (Cal27 cells [2]) was 1.5 µM.
